Common to all, as to format: cell-based
Experiment [1] relates to Streptococcus faecium group D 02D3HT1. The experiment is described as follows: M.I.C., dilutions in liquid medium. As to conditions: Enterococcus faecium, GROUPD02D3HT1, 24 hours at 37° C., read-out: minimal inhibitory concentration (M.I.C.). As to the method: (§1) Method of dilutions in liquid medium A series of tubes was prepared into which an equal quantity of sterile nutritive medium was distributed. Increasing quantities of the product to be studied were distributed into each tube and then each tube was seeded with a bacterial strain. After incubation for twenty-four hours in an oven at 37° C., the growth inhibition was evaluated by trans-illumination which allowed the minimal inhibitory concentrations (M.I.C.), expressed in micrograms/cm^3, to be determined.

For experiment [2], the system named is Streptococcus mitis 02mitCB1. In words: M.I.C., dilutions in liquid medium. Conditions: 24 hours at 37° C., read-out: minimal inhibitory concentration (M.I.C.). On the procedure:
as §1

Experiment [3] concerns Staphylococcus epidermidis 012GO11I. The experiment is described as follows: M.I.C., dilutions in liquid medium. Conditions: 24 hours at 37° C., read-out: minimal inhibitory concentration (M.I.C.). On the procedure:
as §1

In experiment [4] the test system is Streptococcus sp group G 02G0GR5. In words: M.I.C., dilutions in liquid medium. Conditions: GROUPG02G0GR5, 24 hours at 37° C., read-out: minimal inhibitory concentration (M.I.C.). As to the method: as §1
The test system of experiment [5] is Staphylococcus aureus 011UC4. In words: M.I.C., dilutions in liquid medium. Conditions: 24 hours at 37° C., read-out: minimal inhibitory concentration (M.I.C.). As to the method:
as §1

The test system of experiment [6] is Streptococcus pyogenes group A 02A1UC1. In words: M.I.C., dilutions in liquid medium. As to conditions: GROUPA02A1UC1, 24 hours at 37° C., read-out: minimal inhibitory concentration (M.I.C.). As to the method:
as §1

For experiment [7], the system named is Streptococcus agalactiae group B 02B1SJ1. In words: M.I.C., dilutions in liquid medium. Conditions: GROUPB02B1SJ1, 24 hours at 37° C., read-out: minimal inhibitory concentration (M.I.C.). As to the method:
as §1

Experiment [8] relates to Streptococcus pneumoniae 030SJ5. In words: M.I.C., dilutions in liquid medium. As to conditions: 24 hours at 37° C., read-out: minimal inhibitory concentration (M.I.C.). On the procedure: as §1
Experiment [9] concerns Streptococcus faecalis group D 02D2UC1. The experiment is described as follows: M.I.C., dilutions in liquid medium. As to conditions: Enterococcus faecalis, GROUPD02D2UC1, 24 hours at 37° C., read-out: minimal inhibitory concentration (M.I.C.). On the procedure:
as §1

Experiment [10] concerns Staphylococcus aureus 011G025I. In words: M.I.C., dilutions in liquid medium. As to conditions: 24 hours at 37° C., read-out: minimal inhibitory concentration (M.I.C.). As to the method:
as §1

Experiment [11] concerns Streptococcus agalactiae group B 02B1HT1. In words: M.I.C., dilutions in liquid medium. Conditions: GROUPB02B1HT1, 24 hours at 37° C., read-out: minimal inhibitory concentration (M.I.C.). On the procedure:
as §1

Experiment [12] relates to Streptococcus mitis 02mitGR16I. The experiment is described as follows: M.I.C., dilutions in liquid medium. As to conditions: 24 hours at 37° C., read-out: minimal inhibitory concentration (M.I.C.). As to the method:
as §1

Experiment [13] relates to Haemophilus Influenzae 351HT3, 351CB12, 351CA1 and 351GR6. The experiment is described as follows: activity on gram (-) bacterial strains. On the procedure: as §1

In brackets after ≈: the same amount, converted by molar mass.

Regarding `CC[C@H]1OC(=O)C(C)(F)C(=O)[C@H](C)[C@@H](O[C@@H]2O[C@H](C)C[C@H](N(C)C)[C@H]2O)[C@](C)(OC)C[C@@H](C)C(=O)[C@H](C)[C@H]2N(CCCCn3cnc4cccnc43)C(=O)O[C@]12C` (single isomer, unassigned) [Example 1, 11,12-dideoxy-3-de[(2,6-dideoxy-3-C-methyl-3-0-methyl-α-L-ribohexopyranosyl)-oxy]-2-fluoro-6-0-methyl-3-oxo-12,11-(oxycarbonyl( (4-(3H-imidazo(4,5-b)pyridin-3-yl)-butyl)-imino))-erythromycin], the MIC in [1] was no more than 0.02 µg/mL; in experiment [2], no more than 0.02 µg/mL; in experiment [3], 0.15 µg/mL (≈ 0.187 µM); in experiment [4], 0.02 µg/mL (≈ 0.0249 µM); in experiment [5] it was 0.04 µg/mL (≈ 0.0498 µM); in [6] it was no more than 0.02 µg/mL. The MIC in [7] was 0.08 µg/mL (≈ 0.0995 µM); in experiment [8], 0.02 µg/mL (≈ 0.0249 µM); in [9], 0.02 µg/mL (≈ 0.0249 µM); in experiment [10] it was 0.08 µg/mL (≈ 0.0995 µM); in experiment [11], no more than 0.02 µg/mL; in experiment [12], no more than 0.02 µg/mL. Also, in [13], the “activity on gram (-) bacterial strains” value is “very useful activity”.

Values taken from US5747467A, “Erythromycins” (Roussel Uclaf, priority 1995, dated 1998).
